Assay results from US11033547B2, “Carboxamide-pyrimidine derivatives as SHP2 antagonists” (Merck Patent GmbH, priority 2019, dated 2021).
Like-named read-outs stand apart in the source and are kept apart here.

How the values were obtained:
[1] = target: Full length SHP2 protein (Recombinant Human SHP-2) (Homo sapiens, UniProt Q06124); assay: SHP2 biochemical assay (DiFMUP substrate, activating peptide IRSI_2pY); conditions: DiFMUP substrate, activating peptide IRSI_2pY, 60 min at RT; read-out: SHP-2 Biochemical assay IC50
Sequence of Full length SHP2 protein (Recombinant Human SHP-2) (Q06124 2-593 limits assumed): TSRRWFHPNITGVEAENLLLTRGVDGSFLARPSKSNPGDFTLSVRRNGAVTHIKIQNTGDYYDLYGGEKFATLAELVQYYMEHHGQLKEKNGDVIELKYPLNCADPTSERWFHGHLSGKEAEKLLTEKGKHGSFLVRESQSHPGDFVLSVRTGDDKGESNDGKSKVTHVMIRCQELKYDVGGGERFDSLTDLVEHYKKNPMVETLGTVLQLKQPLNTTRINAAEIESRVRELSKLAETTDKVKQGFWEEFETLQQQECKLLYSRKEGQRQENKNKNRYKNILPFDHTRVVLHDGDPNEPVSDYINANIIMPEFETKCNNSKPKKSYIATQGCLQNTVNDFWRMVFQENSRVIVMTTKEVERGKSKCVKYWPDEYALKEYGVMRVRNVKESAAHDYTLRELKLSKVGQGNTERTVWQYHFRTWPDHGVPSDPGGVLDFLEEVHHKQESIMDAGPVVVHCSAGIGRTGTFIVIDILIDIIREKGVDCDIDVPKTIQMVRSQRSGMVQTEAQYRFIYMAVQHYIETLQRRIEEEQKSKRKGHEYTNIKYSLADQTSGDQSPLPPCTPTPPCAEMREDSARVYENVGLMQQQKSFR
Protocol: The inhibition of SHP2 by compounds of the invention was monitored using the surrogate substrate DiFMUP after protein activation by a peptide bearing two appropriately spaced phosphotyrosine. […] The generation of the DiFMU product by activated SHP2 was monitored through Fluorescence measurement with a PerkinElmer Envision reader.
The inhibitor dose response curves were analyzed with Genedata Screener.

[2] = tested on: pERK level in MDA-MB-468 cells; assay: p-Erk cellular assay in MDA-MB-468 (Mesoscale); assay type: cell-based; conditions: 2 h incubation, read-out: pERK1/2 in MDA-MB-468 IC50
Protocol: (§1) p-Erk Cellular Assay in MDA-MB-468 and KYSE520:
(§2) The effect of SHP2 inhibitors on pERK level was assessed using phospho-specific antibody using Mesoscale quantification platform. For measuring change in pERK levels using mesoscale, 30,000 cells of MDA MB468 and KYSE520 cells were plated in 96-well tissue culture treated plate in 175 ul volume of media. After an overnight incubation at 37° C., various SHP2 inhibitors were added in different concentration to each well maintaining duplicate wells across plates and incubated with compounds for 2 h at 37° C. followed by a wash with ice cold PBS buffer. The cells were then lysed in lysis buffer and processed and analyzed for p-ERK/ERK as per manufacturer's instructions (Mesoscale discovery, cat No. K15107D-3).

[3] = tested on: pERK level in KYSE520 cells; assay: p-Erk cellular assay in KYSE520 (Mesoscale); assay type: cell-based; conditions: 2 h incubation, read-out: pERK1/2 in KYSE520 IC50
Protocol: as §1, §2

IC50 [1] [µM] | IC50 [2] [µM] | IC50 [3] [µM] | IC50 ([2]; Homo sapiens, MDA-MB-468, 2 h) [µM] | IC50 ([3]; Homo sapiens, KYSE-520, 2 h) [µM] | Compound
0.03 | 0.177 | 0.837 |  |  | CC1(N)CCN(c2nc(Cl)c(-c3cccc(Cl)c3Cl)c(C(N)=O)n2)CC1 (atropisomer, axis not shown; (P)) [Compound 79, (4P)-2-(4-amino-4-methylpiperidin-1-yl)-6-chloro-5-(2,3-dichlorophenyl)-pyrimidine-4-carboxamide]
0.049 |  |  | 0.395 | 1.2 | NC[C@@]12CCC[C@@H]1CN(c1nc(N)c(-c3cccc(Cl)c3Cl)c(C(N)=O)n1)C2 (atropisomer, axis not shown; (P)) [Compound 98, (5P)-2-[(3aR,6aS)-3a-(aminomethyl)octahydrocyclopenta[c]pyrrol-2-yl]-6-amino-5-(2,3-dichlorophenyl)pyrimidine-4-carboxamide]
0.071 |  |  | 0.42 | 0.468 | C[C@@]1(N)CCCN(c2nc(N)c(-c3cccc(Cl)c3Cl)c(C(N)=O)n2)CC1 (atropisomer, axis not shown; (P)) [Compound 109, (5P)-6-amino-2-[(4R)-4-amino-4-methylazepan-1-yl]-5-(2,3-dichlorophenyl)-pyrimidine-4-carboxamide]
0.075 |  |  | 0.445 | 0.39 | NC[C@]12CCCC[C@H]1CN(c1nc(N)c(-c3cccc(Cl)c3Cl)c(C(N)=O)n1)C2 (single isomer, unassigned) [Compound 101]
0.045 |  |  | 0.316 | 0.284 | Cc1nc(N2CCC3(CCC[C@H]3N)CC2)nc(C(N)=O)c1-c1cccc(Cl)c1Cl (single isomer, unassigned) [Compound 114]
0.12 |  |  | 0.606 | 1.37 | NC(=O)c1nc(N2CCC3(CCC[C@H]3N)CC2)nc(N)c1-c1cccc(Cl)c1Cl [Compound 7, 6-amino-2-[(1R)-1-amino-8-azaspiro[4.5]decan-8-yl]-5-(2,3-dichlorophenyl)pyrimidine-4-carboxamide]
0.2 |  |  | 2.18 | 1.51 | NC(=O)c1nc(N2CCC3(CC2)CC(F)(F)C[C@H]3N)nc(N)c1-c1cccc(Cl)c1Cl [Compound 8, 6-amino-2-[(1R)-1-amino-3,3-difluoro-8-azaspiro[4.5]decan-8-yl]-5-(2,3-dichlorophenyl)pyrimidine-4-carboxamide]
1.1 |  |  | 1.5 | 6.44 | CNC(=O)c1nc(N2CCC(C)(N)CC2)nc(N)c1-c1cccc(Cl)c1Cl [Compound 9, 6-Amino-2-(4-amino-4-methyl-piperidin-1-yl)-5-(2,3-dichlorophenyl)-pyrimidine-4-carboxylic Acid Methylamide]
0.59 |  |  | 1.83 | 10.2 | NCC1CN(c2nc(N)c(-c3cccc(Cl)c3Cl)c(C(N)=O)n2)CC12CCC2 (stereo not drawn) [Compound 11, 6-amino-2-[8-(aminomethyl)-6-azaspiro[3.4]octan-6-yl]-5-(2,3-dichlorophenyl)pyrimidine-4-carboxamide]
0.104 | 0.231 |  |  | 2.4 | Cc1nc(N2CCC(C)(N)CC2)nc(C(N)=O)c1-c1cccc(Cl)c1Cl [Compound 18, 2-(4-Amino-4-methyl-piperidin-1-yl)-5-(2,3-dichloro-phenyl)-6-methyl-pyrimidine-4-carboxylic Acid Amide]
0.15 |  |  | 0.492 | 8.45 | CC1(N)CCN(c2nc(N)c(-c3cccc(Cl)c3Cl)c(C(=O)NO)n2)CC1 [Compound 20, 6-Amino-2-(4-amino-4-methyl-piperidin-1-yl)-5-(2,3-dichlorophenyl)-pyrimidine-4-carboxylic Acid Hydroxyamide]
0.27 |  |  | 2.35 | 7.65 | NCC12CCCCC1CN(c1nc(N)c(-c3cccc(Cl)c3Cl)c(C(N)=O)n1)C2 (stereo not drawn) [Compound 24, 2-[3a-(aminomethyl)-octahydro-1H-isoindol-2-yl]-6-amino-5-(2,3-dichlorophenyl)pyrimidine-4-carboxamide]
